From the supplement of paper PMC10331698
± gives the standard deviation of the averaged measurements.

Tests used:
Assay in all cases: level (log10 ratio to DMSO vehicle control); higher = higher biomarker level / cell amount than vehicle control
[1] = compound: O=S(=O)(Cl)C(F)(F)C(F)(F)C(F)(F)C(F)(F)C(F)(F)C(F)(F)C(F)(F)C(F)(F)F [Perfluoro-1-octanesulfonyl chloride]; conditions: in DMSO
Procedure: (§1)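 BioMAP Diversity Plus panel of 12 human primary cell co-culture systems (3C, 4H, LPS, SAg, BT, BF4T, BE3C, CASM3C, HDF3CGF, KF3CT, MyoF, Mphg). Compounds were added 1 h before stimulation and left for 24 h (MyoF 48 h; BT 72 h for soluble read-outs or 6 d for IgG). Biomarkers were read by ELISA, cytotoxicity by SRB, PBMC viability and proliferation by Alamar Blue. Each well value was divided by the mean of 8 DMSO control wells on the same plate and log10 transformed; duplicate blinded samples were tested at 4 concentrations.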

[2] = compound: FC(F)(F)C(F)(F)C(F)(F)CC1CO1 [1H,1H-Heptafluorobutyl epoxide]; conditions: in DMSO
Procedure: as §1

Heptafluorobutyl iodide = compound: FC(F)(F)C(F)(F)C(F)(F)CI [Heptafluorobutyl iodide]; conditions: in DMSO
Procedure: as §1

Nonafluoropentanamide = compound: NC(=O)C(F)(F)C(F)(F)C(F)(F)C(F)(F)F [Nonafluoropentanamide]; conditions: in DMSO
Procedure: as §1

[3] = compound: C=CC(=O)OCC(F)(F)C(F)(F)C(F)(F)COC(=O)C=C [1H,1H,5H,5H-Perfluoro-1,5-pentanediol diacrylate]; conditions: 6700 nM; in DMSO
Procedure: as §1

[4] = compound: FC(F)(F)C(F)(F)C(F)(F)C(F)(F)C(F)(F)C(F)(F)CC1CO1 [3-(Perfluorohexyl)-1,2-epoxypropane]; conditions: in DMSO
Procedure: as §1

[5] = compound: C=C(C)C(=O)OCCC(F)(F)C(F)(F)C(F)(F)C(F)(F)C(F)(F)C(F)(F)F [6:2 Fluorotelomer methacrylate]; conditions: in DMSO
Procedure: as §1

Test System | level (log10) ([1]; 6700 nM) | level (log10) ([1]; 20000 nM) | level (log10) ([1]; 60000 nM) | level (log10) ([2]; 6700 nM) | level (log10) ([2]; 20000 nM) | level (log10) ([2]; 60000 nM) | level (log10) (Heptafluorobutyl iodide; 6700 nM) | level (log10) (Heptafluorobutyl iodide; 20000 nM) | level (log10) (Heptafluorobutyl iodide; 60000 nM) | level (log10) (Nonafluoropentanamide; 6700 nM) | level (log10) (Nonafluoropentanamide; 20000 nM) | level (log10) (Nonafluoropentanamide; 60000 nM) | level (log10) [3] | level (log10) ([4]; 6700 nM) | level (log10) ([4]; 20000 nM) | level (log10) ([4]; 60000 nM) | level (log10) ([5]; 6700 nM) | level (log10) ([5]; 20000 nM) | level (log10) ([5]; 60000 nM)
LPS:CXCL8/IL-8 | -0.005 ± 0.013 | 0.0425 ± 0.0092 | 0.159 ± 0.0057 | -0.019 ± 0.031 | -0.0135 ± 0.028 | 0.003 ± 0.031 | 0.022 ± 0.13 | 0.042 ± 0.076 | 0.087 ± 0.0071 | -0.034 ± 0.028 | -0.002 ± 0.034 | 0.032 ± 0.052 | -0.0285 ± 0.00071 | -0.0205 ± 0.011 | -0.0135 ± 0.021 | 0.0015 ± 0.035 | 0.006 ± 0.014 | 0.023 ± 0.011 | 0.0455 ± 0.015
BF4T:Keratin 8/18 | 0.0075 ± 0.00071 | 0.0125 ± 0.00071 | -0.0805 ± 0.035 | -0.001 ± 0.011 | -0.0025 ± 0.0064 | -0.0235 ± 0.0078 | -0.022 ± 0.014 | -0.0265 ± 0.0035 | -0.0045 ± 0.039 | -0.008 ± 0.013 | -0.0145 ± 0.015 | -0.0305 ± 0.042 | 0.0095 ± 0.0092 | -0.0045 ± 0.03 | -0.014 ± 0.011 | 0.015 ± 0.037 | -0.0305 ± 0.019 | -0.0345 ± 0.044 | -0.054 ± 0.013
BT:sIL-2 | 0.0385 ± 0.047 | 0.104 ± 0.042 | 0.13 ± 0.018 | -0.0245 ± 0.0092 | -0.055 ± 0.15 | 0.022 ± 0.18 | 0.001 ± 0.071 | 0.0735 ± 0.028 | -0.027 ± 0.058 | 0.0345 ± 0.053 | 0.002 ± 0.033 | -0.0105 ± 0.011 | -0.651 ± 0.08 | -0.0165 ± 0.049 | 0.0215 ± 0.0035 | 0.007 | 0.0005 ± 0.012 | -0.0195 ± 0.053 | -0.036 ± 0.025
LPS:sPGE2 | 0.0585 ± 0.0078 | -0.02 ± 0.016 | -0.272 ± 0.03 | 0.007 ± 0.03 | 0.005 ± 0.05 | 0.0105 ± 0.00071 | -0.0175 ± 0.026 | 0.0095 ± 0.064 | 0.0105 ± 0.064 | -0.0015 ± 0.013 | -0.0115 ± 0.016 | -0.022 ± 0.0099 | -0.105 ± 0.028 | 0.022 ± 0.0057 | -0.0655 ± 0.0035 | -0.047 ± 0.0099 | 0.0125 ± 0.0078 | 0.027 ± 0.0099 | 0.0025 ± 0.046
